Source: patent publication US7417038B1, “Methods of treating cachexia” (Imperial Innovations Limited, priority 1998, dated 2008)
Structures can show the parent of a compound that is named as a salt.

Tests used:
[1] = molecular target: T1, ETA receptor (Homo sapiens, UniProt P25101); conditions: cited from earlier work; for selectivity for the ETA receptor versus the ETB receptor: ETA vs ETB
T1 sequence (P25101 21-427): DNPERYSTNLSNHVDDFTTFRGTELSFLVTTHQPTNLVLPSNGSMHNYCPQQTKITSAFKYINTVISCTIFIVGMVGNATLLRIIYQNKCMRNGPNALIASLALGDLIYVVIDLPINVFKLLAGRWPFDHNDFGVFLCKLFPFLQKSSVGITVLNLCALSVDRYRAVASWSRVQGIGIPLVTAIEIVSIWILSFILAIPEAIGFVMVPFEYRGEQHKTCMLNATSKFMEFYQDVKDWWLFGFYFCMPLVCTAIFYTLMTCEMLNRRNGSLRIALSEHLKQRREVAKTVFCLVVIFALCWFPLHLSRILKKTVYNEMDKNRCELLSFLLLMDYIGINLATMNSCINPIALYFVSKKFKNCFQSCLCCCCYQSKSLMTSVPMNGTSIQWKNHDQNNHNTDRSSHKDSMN

[2] = Treatment of a hypertensive patient with Atenolol (with co-medication): body weight; type: in vivo, human; conditions: baseline 85.6 kg, Atenolol 50 mgs OD with Losartan, Bendrofluazide, Doxazosin, 11 months
Method: A hypertensive patient presented weighing 85.6 kg. They were treated with Losartan 50 mgs OD, Bendrofluazide 2-5 mgs OD, Doxazosin 1 mg OD and Atenolol, a β-blocker, 50 mgs OD. In 11 months their weight increased to 94.3 kg.

[3] = molecular target: T2, human cloned ETA receptors (Homo sapiens, UniProt P25101); conditions: cited from earlier work
T2 sequence (P25101 21-427): T1 sequence (P25101 21-427)

[4] = Spironolactone treatment of a cachectic CHF patient: symptom limited treadmill exercise testing; type: in vivo, human; conditions: one cachectic CHF patient, spironolactone 25 mg once daily, follow-up vs baseline
Method: The patient had good compliance in taking spironolactone.
Treadmill exercise testing: The patient underwent symptom limited treadmill exercise testing. A standard Bruce protocol was used. The patient breathed through a one-way valve connected to a commercially available respiratory gas analyser (MedGraphics Inc., USA) and minute ventilation and oxygen consumption were recorded on line every 15 seconds. The patient was encouraged to exercise to exhaustion. Exercise time and oxygen consumption at peak exercise adjusted for total body weight (peak VO2 in ml/kg/min) was measured as an index of the exercise capacity. One day prior to the intended baseline exercise test an additional exercise test was performed to familarise the patient with the test procedure.

[5] = Spironolactone treatment of a cachectic CHF patient: body weight and clinical status; conditions: one cachectic CHF patient, spironolactone 25 mg once daily
[6] = Carvedilol treatment of a cachectic CHF patient: body weight, body composition (bioelectrical impedance), clinical status; type: in vivo, human; conditions: one cachectic CHF patient
[7] = Carvedilol treatment of a cachectic CHF patient: symptom limited treadmill exercise testing; type: in vivo, human; conditions: one cachectic CHF patient, Carvedilol 3.125 mg to 12.5 mg twice daily, follow-up vs baseline
[8] = without development of any oedema
[9] = Carvedilol, without development of oedema

For CCCCN(CCCC)C(=O)CN1C[C@H](c2cc(OC)c3c(c2)OCO3)[C@@H](C(=O)O)[C@@H]1CC(C)(C)CCC [A-216546], the “selectivity for the ETA receptor versus the ETB receptor” value [1] is given as > 25,000 fold.
In the case of CC(C)NCC(O)COc1ccc(CC(N)=O)cc1 (centres unmarked) [Atenolol], the “body weight after treatment” value [2] is reported as 94.3 kg.
For COc1ccccc1Oc1c(NS(=O)(=O)c2ccc(C)cn2)nc(-c2ccnc(-c3nnn[nH]3)c2)nc1OCCO [Ro 61-1790, 5-methyl-pyridine-2-sulfonic acid 6-(2-hydroxy-ethoxy)-5-(2-methoxy-phenoxy)-2-(2-1H-tetrazol-5-yl-+++pyridin-4-yl)-pyrimidin-4-ylamide], the “selectivity for the ETA receptor versus the ETB receptor” value [1] is listed as “approximately 1000 fold” and the “affinity to ETA receptor” value ([1]; competitive ET antagonist) is listed as “subnanomolar range”.
For Cc1ccc(-c2c(NS(=O)(=O)c3ccc(C(C)(C)CO)cc3)ncnc2OCCOc2ncc(Br)cn2)cc1 [T-0201, N-(6-(2-(5-bromopyrimidin-4-yl)-4-(2-hydroxy-1,1-dimethylethyl)-benzensulfonamidesodium salt sesquihydrate], the “effect on specific binding of [125I]-ET-1” value [3] is given as “competitively antagonized the specific binding”.
For CC(=O)S[C@@H]1CC2=CC(=O)CC[C@]2(C)[C@H]2CC[C@@]3(C)[C@@H](CC[C@@]34CCC(=O)O4)[C@H]12 [spironolactone], the exercise time increase [4] was 53%, the “peak VO2 increase” value [4] was 79% and the “New York Heart Association functional class (NYHA class) change” value [5] was “class III symptoms to class II symptoms”. For the same molecule, the “side effects of the treatment” value [5] was “no side effects”, the body weight increase [5, 8] was 1.5 kg and the “body weight increase (percent)” value [5, 8] was 2%.
With COc1ccccc1OCCNCC(O)COc1cccc2[nH]c3ccccc3c12 (centres unmarked) [Carvedilol] the “tolerability of the treatment” value ([6]; Carvedilol 3.125 mg to 12.5 mg twice daily) was “tolerated the treatment well”, the “increase in lean muscle tissue” value ([6]; Carvedilol 3.125 mg to 12.5 mg twice daily, bioelectrical impedance) was 1.8 kg and the body weight increase [6, 9] was 2.1 kg. For the same molecule, the “body weight increase (percent)” value [6, 9] was 3.1%, the VE/VCO2-slope decrease [7] was 15.5% and the “peak VO2 increase” value [7] was 15%.
